{"source": "paper PMC7180839", "about": "“Biophysical Screens Identify Fragments That Bind to the Viral DNA-Binding Proteins EBNA1 and LANA” (Molecules, 2020)", "key": {"EBNA1 (468–607)": {"target": "T1, EBNA1 (468–607) (Epstein-Barr virus, UniProt P03211)", "T1 construct": "using purified EBNA1 (468–607) mixed in a 2 μl:2 μl ratio with reservoir solution; made in house", "T1 sequence (P03211 468-607)": "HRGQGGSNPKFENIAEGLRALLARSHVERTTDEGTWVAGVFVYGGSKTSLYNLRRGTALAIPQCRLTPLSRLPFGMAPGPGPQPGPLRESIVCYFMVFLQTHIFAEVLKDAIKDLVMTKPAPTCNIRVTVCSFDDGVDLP", "assay": "X-ray crystallography, fragment soaked into preformed EBNA1 crystals", "assay_type": "binding, Epstein–Barr virus (EBV)", "settings": "crystal soak 4 h; 1.3 Å structure, PDB 6VH6; pocket that contacts the DNA phosphate backbone", "description": "We determined the high-resolution crystal structure of one fragment bound to EBNA1 (Figure 4). We soaked the fragment AC37287 into preformed crystals of EBNA1 (468–607). The crystal of AC37287 diffracted to 1.3 Ångstroms and was solved by isomorphous replacement. The electron density around AC38287 is unambiguous at this resolution (Figure 4A). The aliphatic portion of AC37287 binds into a deep hydrophobic pocket made up of the hydrophobic residues I481, L520, L582, V483 and I593 (Figure 4B). The lactone is sandwiched between residues N519 and T590 within the range of a hydrogen bond of N519 (Figure 4C). This molecule binds in a region that is important for DNA binding (Figure 4D).\nCrystals were grown using the vapor diffusion method in 24–48 h using purified EBNA1 (468–607) mixed in a 2 μl:2 μl ratio with reservoir solution (50 mM MES, pH 6.5, 0–150 mM NaCl, and 10 mM DTT). Crystals were transferred to a solution containing 25–30% glycerol and 0.2 μl of 50 mM of AC37287, incubated for 4 h and flash frozen for data collection. Data were collected on the 21BM beamline at the Argonne Light Source (ALS) at Argonne National Laboratory. Data were indexed, reduced, and scaled using HKL3000. The structures were solved by isomorphous replacement. Models were refined in PHENIX, version 1.17, using simulated annealing, minimization, and individual B-factor refinement. […]"}, "[1]": {"target": "T2, EBNA1-CAC (EBNA1 DNA-binding domain) (Epstein-Barr virus, UniProt P03211, C531S/C560S/C591S/C598S)", "T2 construct": "His-tag-SUMO (N, cleaved yes); made in house; host or cells: Escherichia coli", "T2 sequence (P03211 459-607 C531S/C560S/C591S/C598S)": "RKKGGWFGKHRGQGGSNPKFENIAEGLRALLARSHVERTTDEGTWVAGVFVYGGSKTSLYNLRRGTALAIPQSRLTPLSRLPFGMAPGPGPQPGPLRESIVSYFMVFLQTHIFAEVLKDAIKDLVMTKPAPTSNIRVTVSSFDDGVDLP", "assay": "SPR affinity assay, EBNA1-CAC immobilized on CM5 chip via thiol coupling", "design": "species or system Epstein–Barr virus (EBV)", "settings": "Biacore S200, 1:1 interaction model, global Rmax, fragment 79-900 μM, 5% DMSO, pH 7.1", "protocol": "SPR experiments were performed on a Biacore™ S200 instrument (GE Healthcare). […] As an alternative, we developed a thiol coupling method to immobilize EBNA1 and LANA to the Biacore sensor chip. We synthesized a construct that expressed a version of EBNA1 and LANA DNA-binding domains with the internal cysteines mutated to serine and Cys-Ala-Cys added to the C terminus (EBNA1-CAC and LANA-CAC).\nThe 1000 fragments from the library were screened at a concentration of 1 mM (5% DMSO). Hits were selected on the basis of the following criteria: a relative binding response normalized with respect to the positive control, no indication that multiple fragments were bound, R > Rmax (R = Response units, Rmax = the maximum binding capacity based on control fragment) and sensorgram shapes consistent with fragment binding (rapid on and off rates). Based on these criteria, 94 EBNA1 fragments and 104 LANA fragments were selected for further validation to measure binding affinities, which were determined to range from 0.2 to >10 mM. […]\nTo validate fragments from the primary screen, an affinity assay was performed. […] Binding sensorgrams were processed by first subtracting the binding response recorded from the control surface (reference flow cell), followed by solvent correction. […] Affinities were assessed using a global Rmax determined by reference compounds. […]"}}, "note": "pKd: −log10 of the molar value."}
{"smiles": "Cc1ccc2oc(=O)cc(O)c2c1", "note": "[AC37287]", "values": [{"measurement": "fragment binding observed in crystal structure", "setting": "EBNA1 (468–607)", "value": "binds in this pocket of EBNA1"}]}
{"smiles": "OCCCCn1cnc2cc(Cl)c(Cl)cc21", "note": "[SPB07625]", "values": [{"measurement": "pKd", "setting": "[1]", "value": 2.68}]}
